Where two headings read alike, the source gives them in different places.
Legend:
Type in all cases: in vivo
Myzus persicae = assay: Green peach aphid (Myzus persicae) systemic artificial diet test; conditions: 72 h, read-out: Aphid mortality in comparison with untreated controls
Procedure: (§1) If not otherwise specified, the test solutions are prepared as follows: The active compound is dissolved at the desired concentration in a mixture of 1:1 (vol:vol) distilled water: acteone. The test solution is prepared at the day of use. Test solutions are prepared in general at concentrations of 2500 ppm, 1415 ppm and 800 ppm (wt/vol).
For evaluating control of green peach aphid (Myzus persicae) through systemic means the test unit consisted of 96-well-microtiter plates containing liquid artificial diet under an artificial membrane. The compounds were formulated using a solution containing 75% v/v water and 25% v/v DMSO. Different concentrations of formulated compounds were pipetted into the aphid diet, using a custom built pipetter, at two replications. After application, 5 - 8 adult aphids were placed on the artificial membrane inside the microtiter plate wells. The aphids were then allowed to suck on the treated aphid diet and incubated at about 23 ± 1° C. and about 50 ± 5 % relative humidity for 3 days. Aphid mortality and fecundity was then visually assessed.

Heliothis virescens = assay: Tobacco budworm (Heliothis virescens) microtiter diet test; conditions: 120 h, read-out: Egg and larval mortality in comparison with untreated controls
Procedure: as §1
For evaluating control of tobacco budworm (Heliothis virescens) the test unit consisted of 96-well-microtiter plates containing an insect diet and 15-25 H. virescens eggs. The compounds were formulated using a solution containing 75% v/v water and 25% v/v DMSO. Different concentrations of formulated compounds were sprayed onto the insect diet at 10 µl, using a custom built micro atomizer, at two replications. After application, microtiter plates were incubated at about 28 ± 1° C. and about 80 ± 5% relative humidity for 5 days. Egg and larval mortality was then visually assessed.

Anthonomus grandis = assay: Boll weevil (Anthonomus grandis) microtiter diet test; conditions: 120 h, read-out: Egg and larval mortality in comparison with untreated controls
Procedure: as §1
For evaluating control of boll weevil (Anthonomus grandis) the test unit consisted of 96-well-microtiter plates containing an insect diet and 5-10 A. grandis eggs. The compounds were formulated using a solution containing 75% v/v water and 25% v/v DMSO. Different concentrations of formulated compounds were sprayed onto the insect diet at 5 µl, using a custom built micro atomizer, at two replications. After application, microtiter plates were incubated at about 25 ± 1° C. and about 75 ± 5% relative humidity for 5 days. Egg and larval mortality was then visually assessed.

Nezara viridula = assay: Green soldier stink bug (Nezara viridula) soybean pod spray test; conditions: 120 h, 5 days, late 3rd instar, read-out: Percent mortality in comparison with untreated controls
Procedure: as §1
The active compound is dissolved at the desired concentration in a mixture of 1:1 (vol:vol) distilled water: aceteone. Surfactant (Kinetic) is added at a rate of 0.01% (vol/vol).The test solution is prepared at the day of use. Soybean pods are placed in 90 × 50 mm glass Petri dishes lined with moistened filter paper and inoculated with ten late 3rd instar N. viridula. Using a hand atomizer, an approximately 2 ml solution is sprayed into each Petri dish. Treated set-up is kept at about 25-26° C. and relative humidity of about 65-70%. Percent mortality is recorded after 5 days.

Aedes aegypti = assay: whole plant or invertebrate; conditions: 48 h, 2 days, freshly hatched larvae, read-out: Larval mortality in comparison with untreated controls
Procedure: as §1
For evaluating control of yellow fever mosquito (Aedes aegypti) the test unit consisted of 96-well-microtiter plates containing 200 µl of tap water per well and 5-15 freshly hatched A. aegypti larvae. The active compounds were formulated using a solution containing 75% (v/v) water and 25% (v/v) DMSO. Different concentrations of formulated compounds or mixtures were sprayed onto the […] at 2.5 µl, using a custom built micro atomizer, at two replications. After application, microtiter plates were incubated at 28 + 1° C., 80 + 5% RH for 2 days. Larval mortality was then visually assessed.

[1] = system: Trialeurodes vaporariorum; assay: Greenhouse whitefly (Trialeurodes vaporariorum) egg plant leaf disk test; conditions: foliar, 144 h, 6 days, read-out: Mortality of hatched crawlers in comparison with untreated controls
Procedure: as §1
For evaluating control of Greenhouse Whitefly (Trialeurodes vaporariorum) the test unit consisted of 96-well-microtiter plates containing a leaf disk of egg plant leaf disk with white fly eggs. The compounds or mixtures were formulated using a solution containing 75% water and 25% DMSO. Different concentrations of formulated were sprayed onto the insect diet at 2.5 µl, using a custom built micro atomizer, at two replications. After application, microtiter plates were incubated at 23 ± 1° C., 65 ± 5% RH for 6 days. Mortality of hatched crawlers was then visually assessed.

Megoura viciae = assay: Vetch aphid (Megoura viciae) broad bean leaf disk test; conditions: foliar, 120 h, 5 days, adult aphids on treated leaf disks, read-out: Aphid mortality in comparison with untreated controls
Procedure: as §1
For evaluating control of vetch aphid (Megoura viciae) through contact or systemic means the test unit consisted of 24-well-microtiter plates containing broad bean leaf disks.
The compounds were formulated using a solution containing 75% v/v water and 25% v/v DMSO. Different concentrations of formulated compounds were sprayed onto the leaf disks at 2.5 µl, using a custom built micro atomizer, at two replications. After application, the leaf disks were air-dried and 5 - 8 adult aphids placed on the leaf disks inside the microtiter plate wells. The aphids were then allowed to suck on the treated leaf disks and incubated at about 23 ± 1° C. and about 50 ± 5% relative humidity for 5 days. Aphid mortality and fecundity was then visually assessed.

[2] = 3 days, adult aphids on treated diet
[3] = 800 ppm, 3 days, adult aphids on treated diet

CCS(=O)(=O)c1cc(/C=N/O)cnc1-c1cn2c(=O)n(C)c(C(F)(F)F)cc2n1 [Compound C-2]
> 75%: mortality at 2500 ppm (Myzus persicae; [2]) | mortality at 2500 ppm (Heliothis virescens; 5 days) | mortality at 2500 ppm (Anthonomus grandis; 5 days)

CCS(=O)(=O)c1cc(/C=N/O)cnc1-c1cn2c(=O)n(C3CC3)c(C(F)(F)F)cc2n1 [Compound C-23, (3E)-6-[6-cyclopropyl-5-oxo-7-(trifluoromethyl)imidazo[1,2-c]pyrimidin-2-yl]-5-ethylsulfonyl-pyridine-3-carbaldehyde oxime]
> 75%: mortality at 800 ppm (Nezara viridula) | mortality at 800 ppm (Myzus persicae; [3])

CCS(=O)(=O)c1cc(/C(C#N)=N/OCC#N)cnc1-c1cn2c(=O)n(C3CC3)c(C(F)(F)F)cc2n1 [Compound C-12]
> 75%: mortality at 800 ppm (Aedes aegypti) | mortality at 800 ppm (Myzus persicae; [3]) | mortality at 800 ppm (Anthonomus grandis; 800 ppm, 5 days)

CCO/N=C/c1cnc(-c2cn3c(=O)n(C4CC4)c(C(F)(F)F)cc3n2)c(S(=O)(=O)CC)c1 [Compound C-14]
> 75%: mortality at 800 ppm (Aedes aegypti) | mortality at 800 ppm (Nezara viridula) | mortality at 800 ppm (Myzus persicae; [3]) | mortality at 800 ppm (Heliothis virescens; 800 ppm, 5 days) | mortality at 800 ppm (Anthonomus grandis; 800 ppm, 5 days)

CCS(=O)(=O)c1cc(C2=NOC3(CCCC3)C2)cnc1-c1cn2c(=O)n(C3CC3)c(C(F)(F)F)cc2n1 [Compound C-13, 6-cyclopropyl-2-[3-ethylsulfonyl-5-(1-oxa-2-azaspiro[4.4]non-2-en-3-yl)-2-pyridyl]-7-(trifluoromethyl)imidazo[1,2-c]pyrimidin-5-one]
> 75%: mortality at 800 ppm [1] | mortality at 800 ppm (Aedes aegypti) | mortality at 800 ppm (Myzus persicae) | mortality at 800 ppm (Heliothis virescens) | mortality at 800 ppm (Anthonomus grandis)

CCS(=O)(=O)c1cc(/C=N/OCC(F)(F)F)cnc1-c1cn2c(=O)n(C3CC3)c(C(F)(F)F)cc2n1 [Compound C-16]
> 75%: mortality at 800 ppm [1] | mortality at 800 ppm (Myzus persicae; [3]) | mortality at 800 ppm (Heliothis virescens; 800 ppm, 5 days) | mortality at 800 ppm (Anthonomus grandis; 800 ppm, 5 days)

CCS(=O)(=O)c1cc(C(C)(C)C#N)cnc1-c1cn2c(=O)n(C)c(C(F)(F)F)cc2n1 [Compound C-5, 2-[5-ethylsulfonyl-6-[6-methyl-5-oxo-7-(trifluoromethyl)imidazo[1,2-c]pyrimidin-2-yl]-3-pyridyl]-2-methyl-propanenitrile]
> 75%: mortality at 2500 ppm ([1]; 2500 ppm) | mortality at 800 ppm (Nezara viridula) | mortality at 2500 ppm (Myzus persicae; [2]) | mortality at 2500 ppm (Heliothis virescens; 5 days) | mortality at 2500 ppm (Anthonomus grandis; 5 days)

CCS(=O)(=O)c1cc(/C(C#N)=N/OC)cnc1-c1cn2c(=O)n(C3CC3)c(C(F)(F)F)cc2n1 [Compound C-9]
> 75%: mortality at 800 ppm (Aedes aegypti) | mortality at 800 ppm (Nezara viridula) | mortality at 800 ppm (Myzus persicae; [3]) | mortality at 800 ppm (Heliothis virescens; 800 ppm, 5 days) | mortality at 800 ppm (Anthonomus grandis; 800 ppm, 5 days)

CCS(=O)(=O)c1cc(/C=N/OC(C)C)cnc1-c1cn2c(=O)n(C3CC3)c(C(F)(F)F)cc2n1 [Compound C-15]
> 75%: mortality at 800 ppm [1] | mortality at 800 ppm (Nezara viridula) | mortality at 800 ppm (Myzus persicae; [3]) | mortality at 800 ppm (Heliothis virescens; 800 ppm, 5 days) | mortality at 800 ppm (Anthonomus grandis; 800 ppm, 5 days)

CCS(=O)(=O)c1cc(C(C)(C)C#N)cnc1-c1cn2c(=O)n(CC3CC3)c(C(F)(F)F)cc2n1 [Compound C-7]
> 75%: mortality at 800 ppm (Aedes aegypti) | mortality at 800 ppm (Nezara viridula) | mortality at 800 ppm (Myzus persicae; [3]) | mortality at 800 ppm (Heliothis virescens; 800 ppm, 5 days) | mortality at 800 ppm (Anthonomus grandis; 800 ppm, 5 days)

CCS(=O)(=O)c1cc(/C(C#N)=N/O)cnc1-c1cn2c(=O)n(C3CC3)c(C(F)(F)F)cc2n1 [Compound C-8, (2Z)-2-[6-[6-cyclopropyl-5-oxo-7-(trifluoromethyl)imidazo[1,2-c]pyrimidin-2-yl]-5-ethylsulfonyl-3-pyridyl]-2-hydroxyimino-acetonitrile]
> 75%: mortality at 800 ppm (Myzus persicae; [3])

CCS(=O)(=O)c1cc(/C=N/OCC(F)(F)F)cnc1-c1cn2c(=O)n(C)c(C(F)(F)F)cc2n1 [Compound C-3, 2-[3-ethylsulfonyl-5-[(E)-2,2,2-trifluoroethoxyiminomethyl]-2-pyridyl]-6-methyl-7-(trifluoromethyl)imidazo[1,2-c]pyrimidin-5-one]
> 75%: mortality at 800 ppm (Aedes aegypti) | mortality at 2500 ppm (Megoura viciae) | mortality at 800 ppm (Nezara viridula) | mortality at 2500 ppm (Myzus persicae; [2]) | mortality at 2500 ppm (Heliothis virescens; 5 days) | mortality at 2500 ppm (Anthonomus grandis; 5 days)

CCS(=O)(=O)c1cc(/C=N/OC)cnc1-c1cn2c(=O)n(C)c(C(F)(F)F)cc2n1 [Compound C-1]
> 75%: mortality at 800 ppm (Aedes aegypti) | mortality at 2500 ppm (Megoura viciae) | mortality at 800 ppm (Nezara viridula) | mortality at 2500 ppm (Myzus persicae; [2]) | mortality at 2500 ppm (Heliothis virescens; 5 days) | mortality at 2500 ppm (Anthonomus grandis; 5 days)

CCS(=O)(=O)c1cc(C2(C#N)CC2)cnc1-c1cn2c(=O)n(C3CC3)c(C(F)(F)F)cc2n1 [Compound C-6, 1-[6-[6-cyclopropyl-5-oxo-7-(trifluoromethyl)imidazo[1,2-c]pyrimidin-2-yl]-5-ethylsulfonyl-3-pyridyl]cyclopropanecarbonitrile]
> 75%: mortality at 800 ppm [1] | mortality at 800 ppm (Aedes aegypti) | mortality at 800 ppm (Nezara viridula) | mortality at 800 ppm (Heliothis virescens; 800 ppm, 5 days) | mortality at 800 ppm (Anthonomus grandis; 800 ppm, 5 days)

CCS(=O)(=O)c1cc(/C(C#N)=N/OCC2CC2)cnc1-c1cn2c(=O)n(C3CC3)c(C(F)(F)F)cc2n1 [Compound C-11]
> 75%: mortality at 800 ppm [1] | mortality at 800 ppm (Aedes aegypti) | mortality at 800 ppm (Nezara viridula) | mortality at 800 ppm (Myzus persicae; [3]) | mortality at 800 ppm (Heliothis virescens; 800 ppm, 5 days) | mortality at 800 ppm (Anthonomus grandis; 800 ppm, 5 days)

CCS(=O)(=O)c1cc(/C(C#N)=N/OCC(F)(F)F)cnc1-c1cn2c(=O)n(C3CC3)c(C(F)(F)F)cc2n1 [Compound C-10]
> 75%: mortality at 800 ppm (Aedes aegypti) | mortality at 800 ppm (Nezara viridula) | mortality at 800 ppm (Myzus persicae; [3]) | mortality at 800 ppm (Heliothis virescens; 800 ppm, 5 days) | mortality at 800 ppm (Anthonomus grandis; 800 ppm, 5 days)
